The results in this text go back to paper PMC9867442, “Indole Derivatives Bearing Imidazole, Benzothiazole-2-Thione or Benzoxazole-2-Thione Moieties—Synthesis, Structure and Evaluation of Their Cytoprotective, Antioxidant, Antibacterial and Fungicidal Activities” (Molecules, 2023).

Series [1] concerns Bacillus subtilis. The series is described as follows: Antibacterial well-diffusion method. Format: cell-based. The note with it: 0.1 mL of compound in DMSO, 48 h, 27 °C. As to the method: (§1) The antimicrobial properties of compounds were determined against selected bacteria: Micrococcus luteus, Bacillus subtilis, Escherichia coli and Pseudomonas fluorescens which came from the collection of Pure Cultures of the Facility of Microbiology of the Department of Soil Science and Microbiology of the Poznan University of Life Sciences. The well-diffusion method was used to evaluate the antimicrobial properties of compounds. 6 mL each of liquidized broth medium was poured into sterile Petri dishes and allowed to solidify. After which, two sterile glass rings with a diameter of 0.5 cm were placed on the surface of each plate. Then 20 mL each of liquid broth medium containing suspensions of the tested bacterial strains at a density of 10^7 cells/cm3, obtained from 48-h cultures on broth […], was introduced. After the medium solidified, the glass rings were removed with a pencil, obtaining two wells on each plate. 0.1 mL of compound dissolved in pure dimethyl sulphoxide was introduced into one well, and 0.1 mL of pure dimethyl sulphoxide was introduced into the other well, which was as a control. Each compound was tested in four replicates. The plates were incubated for 48 h in a thermostat at 27 °C for M. luteus, B. subtilis and P. fluorescens cultures, and the E. coli culture at 37 °C. At the end of the incubation, the diameters of growth inhibition of the tested strains were measured using calipers.
On the technique in general: Agar diffusion results depend on both activity and mobility in agar.

For series [2], the system named is Escherichia coli. As to the kind of experiment: Antibacterial well-diffusion method. The class given is cell-based. The note with it: 0.1 mL of compound in DMSO, 48 h, 37 °C. As to the method: as §1
Series [3] has as its system Micrococcus luteus. The series is described as follows: Antibacterial well-diffusion method. The class given is cell-based. The conditions noted are these: Micrococus luteus, 0.1 mL of compound in DMSO, 48 h, 27 °C. As to the method:
as §1

In series [4] the test system is Pseudomonas fluorescens. As to the kind of experiment: Antibacterial well-diffusion method. The note with it: 0.1 mL of compound in DMSO, 48 h, 27 °C. Format: cell-based. As to the method: as §1
Series [5] has as its system Coniophora puteana (Cp). The series is described as follows: Antifungal agar-plate method. The class given is cell-based. The note with it: Coniophora puteana, read-out: Antifungal activity (inhibition of mycelial growth); for inhibition of growth at 0.0001 %: concentration 0.0001%; for inhibition of growth at 0.001 %: concentration 0.001%; for inhibition of growth at 0.01 %: concentration 0.01%; for inhibition of growth at 0.1 %: concentration 0.1%. As to the method: (§2) Fungal strains: Coriolus versicolor (Cv), Poria placenta (Pp), Coniophora puteana (Cp) and Gloeophyllum trabeum (Gt) were used as a test organism for the experimental determination of the antifungal activity of 1–11. The fungus were obtained from the collection of the Department of Wood Chemical Technology, Faculty of Forestry and Wood Technology, Poznań, University of Life Sciences, Poland. The fungal growth rates were measured in 90 mm-diameter plastic dishes using the agar-plate method, described by Ważny and Thorton. Five concentrations of gramine and its derivatives in the range of 0.1% to 0.00001% were studied. The compound was applied on the agar (2% agar and 5% malt-extract) prepared on the Petri dish and previously autoclaved. The combination of the compound and fungus was repeated three times. Given sample was centrally inoculated with a 5 mm diameter disc taken from the submargin of 5-day-old malt agar plates. The plates were incubated in darkness at 21 ± 2 °C and 70 ± 5% relative air humidity. The growth duration was determined by the total coverage of the reference plate. The radius of the area covered by the fungus compared with the reference agar plate was employed to calculate the effective doses, ED50, of preservative concentrations retarding the fungal growth rate by 50%.

The subject of series [6] is Coriolus versicolor (Cv). The series is described as follows: Antifungal agar-plate method. Format: cell-based. The note with it: Trametes versicolor, read-out: Antifungal activity (inhibition of mycelial growth); for inhibition of growth at 0.0001 %: concentration 0.0001%; for inhibition of growth at 0.001 %: concentration 0.001%; for inhibition of growth at 0.01 %: concentration 0.01%; for inhibition of growth at 0.1 %: concentration 0.1%. As to the method: as §2

The subject of series [7] is Gloeophyllum trabeum (Gt). As to the kind of experiment: Antifungal agar-plate method. The class given is cell-based. The conditions noted are these: Gloeophyllum trabeum, read-out: Antifungal activity (inhibition of mycelial growth); for inhibition of growth at 0.0001 %: concentration 0.0001%; for inhibition of growth at 0.001 %: concentration 0.001%; for inhibition of growth at 0.01 %: concentration 0.01%; for inhibition of growth at 0.1 %: concentration 0.1%. As to the method: as §2

The subject of series [8] is Poria placenta (Pp). As to the kind of experiment: Antifungal agar-plate method. The conditions noted are these: read-out: Antifungal activity (inhibition of mycelial growth); for inhibition of growth at 0.0001 %: concentration 0.0001%; for inhibition of growth at 0.001 %: concentration 0.001%; for inhibition of growth at 0.01 %: concentration 0.01%; for inhibition of growth at 0.1 %: concentration 0.1%. Format: cell-based. As to the method: as §2

As for `CCc1nc(C)cn1Cc1c[nH]c2ccccc12` [Compound 6, 3-((2-ethyl-4-methyl-1H-imidazol-1-yl)methyl)-1H-indole], the melting point fell in the range of 186 to 189 °C. Besides, the “Zone of Growth Inhibition” value in series [1] is recorded as 2.4 mm. For the same molecule, the “Zone of Growth Inhibition” value in series [2] stood at 3.5 mm. Also, the “Zone of Growth Inhibition” value in series [3] was determined as 6 mm. Besides, in [4], the “Zone of Growth Inhibition” value is given as 2.3 mm. Besides, in [5], the inhibition of growth at 0.0001 % is 40%, the inhibition of growth at 0.001 % turned out to be 37%, the inhibition of growth at 0.01 % turned out to be 49% and the inhibition of growth at 0.1 % was 100%. For the same molecule, in series [6], the inhibition of growth at 0.0001 % worked out at 19%, the inhibition of growth at 0.001 % is 19%, the inhibition of growth at 0.01 % stood at 44% and the inhibition of growth at 0.1 % was 100%. In addition, in series [7], the inhibition of growth at 0.0001 % is 13%, the inhibition of growth at 0.001 % is 9%, the inhibition of growth at 0.01 % turned out to be 27% and the inhibition of growth at 0.1 % was determined as 100%. In addition, in series [8], the inhibition of growth at 0.0001 % was 4%, the inhibition of growth at 0.001 % amounted to 0%, the inhibition of growth at 0.01 % worked out at 41% and the inhibition of growth at 0.1 % came to 100%.

With `CN(C)Cc1c[nH]c2ccccc12` [Compound 1, gramine, reference compound], the “Zone of Growth Inhibition” value in series [1] is recorded as 0 mm; in series [2], 0 mm; in [3], 0 mm; in [4], 13 mm. Besides, the inhibition of growth at 0.0001 % was found to be 41% in series [5], 18% in series [6], 12% in series [7] and 14% in series [8]. Also, the inhibition of growth at 0.001 % turned out to be 40% in series [5], 22% in series [6], 12% in [7] and 25% in series [8]. Also, the inhibition of growth at 0.01 % amounted to 51% in series [5], 35% in series [6], 17% in series [7] and 40% in series [8]. The inhibition of growth at 0.1 % in series [5], in [6], in series [7] and in series [8] was 100% throughout.

Regarding `CCc1nccn1Cc1c[nH]c2ccccc12` [Compound 4, 3-((2-ethyl-1H-imidazol-1-yl)methyl)-1H-indole], the melting point is 183 to 186 °C. For the same molecule, the “Zone of Growth Inhibition” value in series [1] is 4.3 mm. For the same molecule, the “Zone of Growth Inhibition” value in [2] worked out at 3.8 mm. The “Zone of Growth Inhibition” value in [3] is 8.8 mm. For the same molecule, in series [4], the “Zone of Growth Inhibition” value stood at 3 mm. Moreover, in series [5], the inhibition of growth at 0.0001 % was found to be 13%, the inhibition of growth at 0.001 % came out at 15%, the inhibition of growth at 0.01 % amounted to 37% and the inhibition of growth at 0.1 % stood at 100%. In [6], the inhibition of growth at 0.0001 % was determined as 6%, the inhibition of growth at 0.001 % came out at 13%, the inhibition of growth at 0.01 % was 43% and the inhibition of growth at 0.1 % came to 100%. Also, in series [7], the inhibition of growth at 0.0001 % stood at 8%, the inhibition of growth at 0.001 % came out at 11%, the inhibition of growth at 0.01 % stood at 30% and the inhibition of growth at 0.1 % came to 100%. In [8], the inhibition of growth at 0.0001 % was found to be 16%, the inhibition of growth at 0.001 % was determined as 18%, the inhibition of growth at 0.01 % was determined as 32% and the inhibition of growth at 0.1 % was 100%.

Regarding `c1ccc2c(Cn3ccnc3)c[nH]c2c1` [Compound 2], the “Zone of Growth Inhibition” value in series [1] amounted to 3.3 mm; in series [2], 4 mm; in series [3], 21 mm; in series [4] it was 14.7 mm. Also, the inhibition of growth at 0.0001 % in [5] worked out at 0%; in [6] it was 0%; in series [7], 20%; in series [8], 0%. Also, the inhibition of growth at 0.001 % came out at 0% in series [5], 19% in series [6], 20% in series [7] and 20% in series [8]. Moreover, the inhibition of growth at 0.01 % in series [5] stood at 41%; in [6], 33%; in series [7], 40%; in series [8], 47%. Moreover, the inhibition of growth at 0.1 % in series [5], in series [6], in series [7] and in [8] was 100% throughout.

`CC(C)c1nccn1Cc1c[nH]c2ccccc12` [Compound 5, 3-((2-isopropyl-1H-imidazol-1-yl)methyl)-1H-indole] registered a melting point of 183 to 185 °C. For the same molecule, in series [1], the “Zone of Growth Inhibition” value came to 1.8 mm. Further, the “Zone of Growth Inhibition” value in [2] is given as 3 mm. Also, in series [3], the “Zone of Growth Inhibition” value is recorded as 3 mm. In addition, the “Zone of Growth Inhibition” value in [4] is 0 mm. Moreover, in [5], the inhibition of growth at 0.0001 % amounted to 13%, the inhibition of growth at 0.001 % turned out to be 14%, the inhibition of growth at 0.01 % was 26% and the inhibition of growth at 0.1 % stood at 100%. Moreover, in series [6], the inhibition of growth at 0.0001 % is 13%, the inhibition of growth at 0.001 % was determined as 12%, the inhibition of growth at 0.01 % is 43% and the inhibition of growth at 0.1 % amounted to 100%. Also, in series [7], the inhibition of growth at 0.0001 % amounted to 12%, the inhibition of growth at 0.001 % turned out to be 16%, the inhibition of growth at 0.01 % came out at 17% and the inhibition of growth at 0.1 % came to 100%. In [8], the inhibition of growth at 0.0001 % turned out to be 1%, the inhibition of growth at 0.001 % came out at 6%, the inhibition of growth at 0.01 % amounted to 21% and the inhibition of growth at 0.1 % turned out to be 100%.

By inhibition of growth is commonly meant the drop in the measured response relative to a control, in per cent. As usually defined, the melting point is the temperature, or range, at which the solid turns liquid.
